In article PMC6037852, “Design of Diarylheptanoid Derivatives as Dual Inhibitors Against Class IIa Histone Deacetylase and β-amyloid Aggregation” (Frontiers in Pharmacology, 2018):

How the values were obtained:
HDAC4 = target: T1, HDAC4 (Homo sapiens, UniProt P56524); assay: HDAC fluorometric activity assay, HDAC4; format: biochemical; settings: Boc-Lys(TFA)-AMC 10 μM; read-out: IC50 Class IIa HDAC4
T1 construct: Genes encoding HDAC4 (residues 648–1057) flanked with NdeI and EcoRI sites; made in house; host or cells: E. coli BL21(DE3)
T1 sequence (P56524 648-1057): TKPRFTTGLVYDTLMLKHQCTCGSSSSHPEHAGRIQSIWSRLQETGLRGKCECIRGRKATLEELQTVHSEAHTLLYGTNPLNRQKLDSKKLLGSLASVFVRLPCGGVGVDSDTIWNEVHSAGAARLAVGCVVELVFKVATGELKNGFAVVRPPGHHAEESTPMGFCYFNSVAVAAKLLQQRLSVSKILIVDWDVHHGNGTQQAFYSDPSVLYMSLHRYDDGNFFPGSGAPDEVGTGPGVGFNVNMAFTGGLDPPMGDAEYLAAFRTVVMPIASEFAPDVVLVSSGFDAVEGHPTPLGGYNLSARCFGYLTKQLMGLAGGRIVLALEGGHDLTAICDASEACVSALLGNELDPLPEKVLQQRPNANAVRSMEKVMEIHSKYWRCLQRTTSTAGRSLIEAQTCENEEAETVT
Method: Proteins were expressed in BL21(DE3) cells by overnight induction with IPTG (1 mM) at 20–25°C and purified from cleared cell lysates by sequential chromatography on Ni-Sepharose 6 fast flow, Mono Q 5/50 GL, and Superdex 75 10/300 GL columns (GE Healthcare). Protein concentrations were quantified with Bradford Reagent (Bio-Rad).
Enzyme, inhibitors and substrate were diluted with HDAC buffer (15 mM Tris-HCl pH 8.1, 0.25 mM EDTA, 250 mM NaCl, 10% v:v glycerol). Briefly, 10 μL diluted HDAC, i.e., HeLa nuclear extract (Enzo), HDAC6 (BPS), HDAC4, HDAC5 (BPS), HDAC7 (BPS) and HDAC9 (BPS), as well as 50 μL of testing compounds at different concentrations were added to each well of a 96-well microtiter plate and pre-incubated at 30°C for 5 min. […] The fluorescence in wells without test compounds (0.1% DMSO, negative control) was set as 100% enzymatic activity and the fluorescence in wells with enzyme eliminated was set as 0% enzymatic activity. The fluorescence ratio of test compounds to negative control was defined as percentage of remaining enzyme activity. The IC50 values were calculated by linear regression of the data. All experiments were performed in triplicate.

Aβ1-42 = target: T2, Aβ1-42 (Homo sapiens, UniProt P05067); assay: Inhibition of Aβ1-42 self-aggregation, thioflavin-T (ThT) fluorescence assay; format: biochemical; settings: 24 h; for IC50: read-out: Beta-Amyloid Aggregation IC50; for inhibition at 10 µM: single concentration of 10 μM, read-out: Beta-Amyloid Aggregation Inhibition (%)
T2 construct: Aβ1-42 peptides were purchased from Kelowna International Scientific Inc; purchased Kelowna International Scientific Inc
T2 sequence (P05067 672-713 limits assumed): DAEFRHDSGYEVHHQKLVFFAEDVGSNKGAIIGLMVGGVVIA
Method: Inhibition of Aβ1-42 self-aggregation was measured by thioflavin-T (ThT) fluorescence assay ([Hudson et al., 2009]). Aβ1-42 peptides were purchased from Kelowna International Scientific Inc. To avoid Aβ1-42 self-aggregation before the start of the experiment, Aβ1-42 peptides were dissolved in hexafluoroisopropanol (HFIP) to a concentration of 1 mM. The clear solution containing the dissolved peptide was then aliquoted in micro centrifuge tube. The solution was evaporated under vacuum to remove HFIP to give monomeric Aβ1-42. The monomeric Aβ1-42 was dissolved in NaOH(aq) (60 mM) to give a stock solution (1 mM). The Aβ1-42 stock solution was diluted with 50 mM phosphate buffer (containing 0.15 M NaCl, pH 7.4) before use. Fresh ThT stock solution was prepared by dissolving ThT (Sigma, T3516) in phosphate buffer and filtrated through […] Nylon syringe filter. The ThT stock solution and 400 mM ethylenediaminetetraacetic acid (EDTA) were diluted into the phosphate buffer to generate the working solution as background. A mixture of working solution (ThT final concentration: 10 μM), Aβ1-42 stock solution (Aβ1-42 final concentration: 10 μM) and the tested compounds were incubated on BioShake iQ ThermoMixer (37°C, 700 rpm) for 24 h. Fluorescence was measured by Victor 2X microplate spectrophotometer (excitation λ = 440 nm, emission λ = 486 nm), and adapted for 96-well microtiter plates. The fluorescence intensities were recorded and the percent inhibition due to the presence of the inhibitors were calculated by the following formula: (1 - IFi/IFc) × 100% where IFi and IFc were the fluorescence intensities obtained for Aβ1-42 in the presence and in the absence of inhibitors after subtracting the background, respectively. The IC50 values were calculated by the linear regression model of the data. All experiments were performed in triplicate.

SH-SY5Y cells [1] = assay: Cytotoxicity effect on SH-SY5Y cells, alamar blue cell viability assay; format: cell-based, human; settings: 40 μM, 24 h
Method: (§1) SH-SY5Y cells were kindly provided by Professor Zhi-Hong Wen (National Sun Yat-sen University) and cultured in DMEM/F12 (Gibco, Grand Island, NY, United States) supplemented with 10% heat-inactivated fetal bovine serum and penicillin (100 U/ml)/streptomycin (100 μg/ml) (Invitrogen, Carlsbad, CA, United States) at 37°C in an atmosphere of 5% CO2.
Cell viability was assessed using the alamar blue (7-hydroxy-10-oxidophenoxazin-10-ium-3-one) cell viability assay in 6 replicates as described previously ([Feng et al., 2016]). Briefly, 5 × 10^3 cells/well were seeded in 96-well flat-bottomed plates; 24 h later, cells were treated with compounds or DMSO as control. After 24 h of incubation, the medium was removed, 100 μL medium containing 10 μL of alamar blue was added, and cells were incubated in the 5% CO2 incubator at 37°C for 4 h. Absorbance at 570 nm was determined by Synergy HT microplate reader. The results were averaged over three different independent experiments. The cell viability was also evaluated by trypan blue exclusion test.

SH-SY5Y cells [2] = assay: Neuroprotection against H2O2-induced neurotoxicity on SH-SY5Y cells, MTT assay; format: cell-based; settings: Homo sapiens, compound 40 μM, 500 μM H2O2, 3 h, percentage of control, H2O2 alone 34.6%, read-out: Cell viability after H2O2 exposure
Method: as §1
H2O2-induced neurotoxicity on SH-SY5Y cells was used to evaluate the neuroprotective effect ([Rafatian et al., 2012]; [Omar et al., 2017]). Briefly, a density of 2 × 10^4 SH-SY5Y cells were seeded per well in 96-well plates. After 24 h of incubation, the medium was replaced with serum free medium containing H2O2 at a concentration of 500 μM and treated with different concentrations of compounds (40, 20, and 10 μM). SH-SY5Y cells were also cultured without any treatment as control group and results were indicated by percentage of control. After 3 h, cell viability was performed by MTT assay. The cells were treated with MTT (5 mg/ml in PBS) for 4 h at 37°C. The formazan crystals were generated by viable mitochondrial succinate dehydrogenase from MTT. The supernatant was then aspirated off and the formazan crystals were dissolved with DMSO. Absorbance at 570 nm was determined by Tecan Sunrise microplate reader. The trypan blue exclusion test was also used to evaluate the neuroprotection.

| Compound | IC50 (HDAC4) [µM] | IC50 (Aβ1-42) [µM] | inhibition at 10 µM (Aβ1-42) [%] | Cytotoxicity to SH-SY5Y cells (SH-SY5Y cells [1]) | viability at 40 µM (SH-SY5Y cells [2]) [%] |
| --- | --- | --- | --- | --- | --- |
| O=C(/C=C/c1ccccc1)CCCCc1ccccc1 [Compound 4a] | > 40 | > 10 | 11.9 ± 1 | – | – |
| COc1cc(CCC(=O)CCCCc2ccccc2)ccc1O [Compound 5i] | > 40 | > 10 | 4.6 ± 11.7 | – | – |
| O=C(/C=C/c1ccc(O)c(F)c1)CCCCc1ccccc1 [Compound 4f] | > 40 | > 10 | 34.9 ± 9.2 | – | – |
| O=C(/C=C/c1cc(O)c(O)c(O)c1)CCCCc1ccccc1 [Compound 4j] | > 40 | 3.6 ± 1 | 78.7 ± 6.2 | did not show significant cytotoxicity | 88.3 |
| O=C(CCCCc1ccccc1)CCc1cccc(O)c1 [Compound 5d] | > 40 | > 10 | -22.1 ± 2 | – | – |
| O=C(/C=C/c1ccc(O)c(Br)c1)CCCCc1ccccc1 [Compound 4h] | > 40 | > 10 | 28.1 ± 2.1 | – | – |
| O=C(/C=C/c1ccc(O)cc1)CCCCc1ccccc1 [Compound 4b] | > 40 | > 10 | 28.7 ± 6.3 | – | – |
| O=C(CCCCc1ccccc1)CCc1ccc(O)c(O)c1 [Compound 5c] | 18.1 ± 0.8 | 5.8 ± 0.2 | 67.8 ± 3.4 | did not show significant cytotoxicity | 61.3 |
| O=C(CCCCc1ccccc1)CCc1ccc(O)c(Br)c1 [Compound 5h] | > 40 | > 10 | 1 ± 3 | – | – |
| O=C(CCCCc1ccccc1)CCc1ccc(O)cc1 [Compound 5b] | > 40 | > 10 | 30.4 ± 1 | – | – |
| O=C(/C=C/c1ccc(O)c(O)c1)CCCCc1ccccc1 [Compound 4c] | 30.5 ± 0.7 | 6.1 ± 1.3 | 76.2 ± 2.7 | – | – |
| O=C(/C=C/c1ccc(O)c([N+](=O)[O-])c1)CCCCc1ccccc1 [Compound 4i] | > 40 | > 10 | 49 ± 2.9 | – | – |
| O=C(/C=C/c1cccc(O)c1)CCCCc1ccccc1 [Compound 4d] | > 40 | > 10 | 0.7 ± 1.5 | – | – |
| O=C(CCCCc1ccccc1)CCc1ccc(O)c(F)c1 [Compound 5f] | > 40 | > 10 | 22.1 ± 11.1 | – | – |
| O=C(CCCCc1ccccc1)CCc1ccc(O)c(Cl)c1 [Compound 5g] | 29.9 ± 2.3 | > 10 | 17.8 ± 2.8 | – | – |
| O=C(/C=C/c1cccc(O)c1O)CCCCc1ccccc1 [Compound 4e] | 38.8 ± 0.1 | 3.4 ± 0.6 | 91.7 ± 2.5 | – | – |
| O=C(CCCCc1ccccc1)CCc1ccccc1 [Compound 5a] | > 40 | > 10 | 14 ± 3 | – | – |
| COc1cc(/C=C/C(=O)CCCCc2ccccc2)ccc1O [Compound 4k] | > 40 | > 10 | 23.1 ± 6.4 | – | – |
| O=C(/C=C/c1ccc(O)c(Cl)c1)CCCCc1ccccc1 [Compound 4g] | > 40 | > 10 | 27.8 ± 7.1 | – | – |
| O=C(CCCCc1ccccc1)CCc1cccc(O)c1O [Compound 5e] | 35.9 ± 0.1 | 6 ± 0.9 | 65.9 ± 0.2 | did not show significant cytotoxicity | 58.8 |

Further lines, with some results ahead:

| IC50 (HDAC4) [µM] | IC50 (Aβ1-42) [µM] | inhibition at 10 µM (Aβ1-42) [%] | Compound | Cytotoxicity to SH-SY5Y cells (SH-SY5Y cells [1]) | viability at 40 µM (SH-SY5Y cells [2]) [%] |
| --- | --- | --- | --- | --- | --- |
| > 40 | 8.5 ± 0.2 | 59 ± 5.8 | O=C(CCCc1ccccc1)CCc1ccc(O)c(O)c1 [Compound 8d] | – | – |
| 31.1 ± 0.8 | 2.3 ± 0.2 | 83.1 ± 1.9 | O=C(/C=C/c1ccc(O)c(O)c1)c1ccccc1 [Compound 7a] | – | – |
| > 40 | 8.1 ± 1.2 | 68.6 ± 4.1 | O=C(CCc1ccc(O)c(O)c1)Cc1ccccc1 [Compound 8b] | – | – |
| > 40 | 8 ± 1.6 | 71.3 ± 3.8 | O=C(CCc1ccccc1)CCc1ccc(O)c(O)c1 [Compound 8c] | – | – |
| 38.3 | 3.4 ± 0.4 | 83.7 ± 0.8 | O=C(/C=C/c1ccc(O)c(O)c1)CCc1ccccc1 [Compound 7c] | – | – |
| > 40 | 8.6 ± 1.1 | 66.4 ± 1 | O=C(CCc1ccc(O)c(O)c1)c1ccccc1 [Compound 8a] | – | – |
| 39.8 ± 0.2 | 2.1 ± 0.2 | 79.4 ± 2.6 | O=C(/C=C/c1ccc(O)c(O)c1)Cc1ccccc1 [Compound 7b] | – | – |
| 35 ± 2.8 | 3.1 ± 0.3 | 74 ± 9.5 | O=C(/C=C/c1ccc(O)c(O)c1)CCCc1ccccc1 [Compound 7d] | – | – |
